Measured values as given in US11807625B2, “Capsid inhibitors for the prevention of HIV” (Gilead Sciences, Inc., priority 2019, dated 2023).
Read-outs that look alike come from different tables or passages of the source.

Assay: PK of compound of Formula (Ia) after single subcutaneous dose of solution formulations in Wistar Han rats
Format: in vivo
Settings: male, Wistar Han, rat, plasma, sc, 50 mg/kg, mean ± SD
Procedure: Formulations containing the compound of Formula (Ia), or a pharmaceutically acceptable salt thereof, were prepared as solutions and optionally administered subcutaneously or intramuscularly to rats, rabbits, and/or dogs.
A solution of about 400 mg/mL of the compound of Formula (Ia) having 19.14 w/w % water, 40.66 w/w % PEG 300, 35.20 w/w % of a sodium salt of a compound of Formula (Ia), and 5.00% ethanol was prepared. The solution was administered subcutaneously to male Wistar Han rats at a dose level of about 50 mg/kg and dose volume of 0.125 mL/kg and the pharmacokinetic (PK) profile was determined.
A solution of about 500 mg/mL of the compound of Formula (Ia) having 16.64 w/w % water, 35.36 w/w % PEG 300, 43.00 w/w % of a sodium salt of a compound of Formula (Ia), and 5.00% ethanol was prepared. The solution was administered subcutaneously to male Wistar Han rats at a dose level of about 50 mg/kg and dose volume of 0.1 mL/kg and the pharmacokinetic (PK) profile was determined.
A solution of about 400 mg/mL of the compound of Formula (Ia) having 17.00 w/w % water, 36.40 w/w % PEG 300, 35.20 w/w % of a sodium salt of a compound of Formula (Ia), 5.00 w/w % ethanol, and 6.40 w/w % poloxamer 188 was prepared. The solution was administered subcutaneously to male beagle dogs at a dose level of about 12 mg/kg and male Wistar Han rats at a dose level of about 50 mg/kg. The pharmacokinetic profiles were determined, and the results for dogs are summarized in Table and Table, while the results for rats are summarized in Table and Table below.
A solution of about 500 mg/mL of the compound of Formula (Ia) having 14.06 w/w % water, 30.12 w/w % PEG 300, […] of a sodium salt of a compound of Formula (Ia), 5.00 w/w % ethanol, and 6.40 w/w % poloxamer 188 was prepared. The solution was administered subcutaneously to male beagle dogs at a dose level of about 12 mg/kg and male Wistar Han rats at a dose level of about 50 mg/kg. The pharmacokinetic profiles were determined, and the results for dogs are summarized in Table and Table, while the results for rats are summarized in Table and Table below.
A solution of about 300 mg/mL of the compound of Formula (Ia) having 23.33 w/w % water, 48.99 w/w % PEG 300, 26.47 w/w % of a sodium salt of a compound of Formula (Ia), and 1.21 w/w % poloxamer 188 was prepared. The solution was administered subcutaneously to male beagle dogs at a dose level of about 6 mg/kg and male Wistar Han rats at a dose level of about 50 mg/kg. The pharmacokinetic profiles were determined, and the results for dogs are summarized in Table and Table, while the results for rats are summarized in Table and Table below.
A solution of about 400 mg/mL of the compound of Formula (Ia) having 18.80 w/w % water, 40.25 w/w % PEG 300, 34.38 w/w % of a sodium salt of a compound of Formula (Ia), 5.00 w/w % ethanol, and 1.57 w/w % poloxamer 188 was prepared. The solution was administered subcutaneously to male beagle dogs at a dose level of about 12 mg/kg and male Wistar Han rats at a dose level of about 50 mg/kg. The pharmacokinetic profiles were determined, and the results for dogs are summarized in Table and Table, while the results for rats are summarized in Table and Table below.
A solution of about 500 mg/mL of the compound of Formula (Ia) having 16.29 w/w % water, 34.88 w/w % PEG 300, 41.92 w/w % of a sodium salt of a compound of Formula (Ia), 5.00 w/w % ethanol, and 1.91 w/w % poloxamer 188 was prepared. The solution was administered subcutaneously to male beagle dogs at a dose level of about 12 mg/kg and male Wistar Han rats at a dose level of about 50 mg/kg. The pharmacokinetic profiles were determined, and the results for dogs are summarized in Table and Table, while the results for rats are summarized in Table and Table below.
A solution of about 400 mg/mL of the compound of Formula (Ia) having 20.90 w/w % water, 44.72 w/w % PEG 300, and 34.38 w/w % of a sodium salt of a compound of Formula (Ia) was prepared. […]

Question: For `CC(C)(C#Cc1ccc(-c2ccc(Cl)c3c(NS(C)(=O)=O)nn(CC(F)(F)F)c23)c([C@H](Cc2cc(F)cc(F)c2)NC(=O)Cn2nc(C(F)(F)F)c3c2C(F)(F)[C@@H]2C[C@H]32)n1)S(C)(=O)=O` [compound of Formula (Ia)], which AUC(0-t) (male Wistar Han rats, single SC 50 mg/kg, 400 mg/mL solution Y (water, PEG 300), n = 4, read-out: AUC0-336 h) is on record?
Answer: The AUC(0-t) was 31.6 ± 10.9 µM·h.

Question: And the AUC(0-t) (male Wistar Han rats, single SC 50 mg/kg, 400 mg/mL solution Y (water, PEG 300), n = 4, read-out: AUC0-672 h)?
Answer: Its AUC(0-t) is 74.9 ± 33.7 µM·h.

Question: And the AUC(0-t) (male Wistar Han rats, single SC 50 mg/kg, 400 mg/mL solution Y (water, PEG 300), n = 4, read-out: AUC0-1008 h)?
Answer: Its AUC(0-t) is 128 ± 64 µM·h.

Question: And the AUC(0-t) (male Wistar Han rats, single SC 50 mg/kg, 400 mg/mL solution Y (water, PEG 300), n = 4, read-out: AUC0-1344 h)?
Answer: The AUC(0-t) was 182 ± 100 µM·h.

Question: And the AUC(0-t) (male Wistar Han rats, single SC 50 mg/kg, 400 mg/mL solution Y (water, PEG 300), n = 4, read-out: AUC0-1680 h)?
Answer: Its AUC(0-t) is 230 ± 132 µM·h.

Question: What about the AUC(0-t) (male Wistar Han rats, single SC 50 mg/kg, 400 mg/mL solution Y (water, PEG 300), n = 4, read-out: AUC0-2352 h) of the same molecule?
Answer: The AUC(0-t) was 312 ± 181 µM·h.

Question: And the AUC(0-t) (male Wistar Han rats, single SC 50 mg/kg, 400 mg/mL solution Y (water, PEG 300), n = 4, read-out: AUC0-3024 h)?
Answer: Its AUC(0-t) is 389 ± 229 µM·h.

Question: And the AUC(0-t) (male Wistar Han rats, single SC 50 mg/kg, 400 mg/mL solution Y (water, PEG 300), n = 4, read-out: AUC0-3696 h)?
Answer: Its AUC(0-t) is 454 ± 255 µM·h.

Question: And the AUC(0-t) (male Wistar Han rats, single SC 50 mg/kg, 400 mg/mL solution Z (3.13% poloxamer 188), n = 4, read-out: AUC0-24 h)?
Answer: The AUC(0-t) was 2.37 ± 1.6 µM·h.

Question: And the AUC(0-t) (male Wistar Han rats, single SC 50 mg/kg, 400 mg/mL solution Z (3.13% poloxamer 188), n = 4, read-out: AUC0-168 h)?
Answer: Its AUC(0-t) is 23.9 ± 12.4 µM·h.

Question: And the AUC(0-t) (male Wistar Han rats, single SC 50 mg/kg, 400 mg/mL solution Z (3.13% poloxamer 188), n = 4, read-out: AUC0-336 h)?
Answer: The AUC(0-t) was 49.4 ± 25.4 µM·h.

Question: And the AUC(0-t) (male Wistar Han rats, single SC 50 mg/kg, 400 mg/mL solution Z (3.13% poloxamer 188), n = 4, read-out: AUC0-672 h)?
Answer: The AUC(0-t) was 106 ± 49 µM·h.

Question: What about the AUC(0-t) (male Wistar Han rats, single SC 50 mg/kg, 400 mg/mL solution Z (3.13% poloxamer 188), n = 4, read-out: AUC0-1008 h) of the same molecule?
Answer: The AUC(0-t) was 163 ± 68 µM·h.

Question: What about the AUC(0-t) (male Wistar Han rats, single SC 50 mg/kg, 400 mg/mL solution Z (3.13% poloxamer 188), n = 4, read-out: AUC0-1344 h) of the same molecule?
Answer: Its AUC(0-t) is 214 ± 85 µM·h.

Question: What about the AUC(0-t) (male Wistar Han rats, single SC 50 mg/kg, 400 mg/mL solution Z (3.13% poloxamer 188), n = 4, read-out: AUC0-1680 h) of the same molecule?
Answer: Its AUC(0-t) is 259 ± 99 µM·h.

Question: What about the AUC(0-t) (male Wistar Han rats, single SC 50 mg/kg, 400 mg/mL solution Z (3.13% poloxamer 188), n = 4, read-out: AUC0-2352 h) of the same molecule?
Answer: The AUC(0-t) was 344 ± 117 µM·h.

Question: And the AUC(0-t) (male Wistar Han rats, single SC 50 mg/kg, 400 mg/mL solution Z (3.13% poloxamer 188), n = 4, read-out: AUC0-3024 h)?
Answer: The AUC(0-t) was 435 ± 129 µM·h.

Question: What about the AUC(0-t) (male Wistar Han rats, single SC 50 mg/kg, 400 mg/mL solution Z (3.13% poloxamer 188), n = 4, read-out: AUC0-3696 h) of the same molecule?
Answer: Its AUC(0-t) is 544 ± 156 µM·h.

Question: What about the AUC(0-t) (male Wistar Han rats, single SC 50 mg/kg, 500 mg/mL solution X (5.00% ethanol, 1.91% poloxamer 188), n = 3, read-out: AUC0-24 h) of the same molecule?
Answer: Its AUC(0-t) is 2.82 ± 0.53 µM·h.

Question: What about the AUC(0-t) (male Wistar Han rats, single SC 50 mg/kg, 500 mg/mL solution X (5.00% ethanol, 1.91% poloxamer 188), n = 3, read-out: AUC0-168 h) of the same molecule?
Answer: The AUC(0-t) was 30.1 ± 5.1 µM·h.

Question: And the AUC(0-t) (male Wistar Han rats, single SC 50 mg/kg, 500 mg/mL solution X (5.00% ethanol, 1.91% poloxamer 188), n = 3, read-out: AUC0-336 h)?
Answer: Its AUC(0-t) is 64.5 ± 11.4 µM·h.

Question: And the AUC(0-t) (male Wistar Han rats, single SC 50 mg/kg, 500 mg/mL solution X (5.00% ethanol, 1.91% poloxamer 188), n = 3, read-out: AUC0-672 h)?
Answer: Its AUC(0-t) is 152 ± 23 µM·h.

Question: What about the AUC(0-t) (male Wistar Han rats, single SC 50 mg/kg, 500 mg/mL solution X (5.00% ethanol, 1.91% poloxamer 188), n = 3, read-out: AUC0-1008 h) of the same molecule?
Answer: The AUC(0-t) was 244 ± 29 µM·h.

Question: What about the AUC(0-t) (male Wistar Han rats, single SC 50 mg/kg, 500 mg/mL solution X (5.00% ethanol, 1.91% poloxamer 188), n = 3, read-out: AUC0-1344 h) of the same molecule?
Answer: The AUC(0-t) was 329 ± 35 µM·h.

Question: And the AUC(0-t) (male Wistar Han rats, single SC 50 mg/kg, 500 mg/mL solution X (5.00% ethanol, 1.91% poloxamer 188), n = 3, read-out: AUC0-1680 h)?
Answer: The AUC(0-t) was 416 ± 47 µM·h.

Question: And the AUC(0-t) (male Wistar Han rats, single SC 50 mg/kg, 500 mg/mL solution X (5.00% ethanol, 1.91% poloxamer 188), n = 3, read-out: AUC0-2352 h)?
Answer: Its AUC(0-t) is 549 ± 64 µM·h.

Question: What about the AUC(0-t) (male Wistar Han rats, single SC 50 mg/kg, 500 mg/mL solution X (5.00% ethanol, 1.91% poloxamer 188), n = 3, read-out: AUC0-3024 h) of the same molecule?
Answer: Its AUC(0-t) is 659 ± 80 µM·h.

Question: And the AUC(0-t) (male Wistar Han rats, single SC 50 mg/kg, 500 mg/mL solution X (5.00% ethanol, 1.91% poloxamer 188), n = 3, read-out: AUC0-3696 h)?
Answer: The AUC(0-t) was 761 ± 84 µM·h.

Question: What about the AUC(0-t) (male Wistar Han rats, single SC 50 mg/kg, 500 mg/mL solution X (5.00% ethanol, 1.91% poloxamer 188), n = 3, read-out: AUC0-4704 h) of the same molecule?
Answer: Its AUC(0-t) is 806 ± 83 µM·h.

Question: And the Cmax (n = 3 rats, SC 50 mg/kg, solution R, 400 mg/mL)?
Answer: The Cmax was 370 ± 65 nM.

Question: And the AUC(0-t) (n = 3 rats, SC 50 mg/kg, solution R, 400 mg/mL, read-out: AUC0-24h)?
Answer: Its AUC(0-t) is 3.02 ± 0.65 µM·h.

Question: What about the AUC(0-t) (n = 3 rats, SC 50 mg/kg, solution R, 400 mg/mL, read-out: AUC0-168h) of the same molecule?
Answer: Its AUC(0-t) is 25.2 ± 5.3 µM·h.

Question: And the AUC(0-t) (n = 3 rats, SC 50 mg/kg, solution R, 400 mg/mL, read-out: AUC0-336h)?
Answer: Its AUC(0-t) is 60.6 ± 8.3 µM·h.

Question: What about the AUC(0-t) (n = 3 rats, SC 50 mg/kg, solution R, 400 mg/mL, read-out: AUC0-672h) of the same molecule?
Answer: The AUC(0-t) was 170 ± 5.4 µM·h.

Question: And the AUC(0-t) (n = 3 rats, SC 50 mg/kg, solution R, 400 mg/mL, read-out: AUC0-1008h)?
Answer: Its AUC(0-t) is 287 ± 32 µM·h.
